Laboratory results as given in patent US20080200533A1, “Drug or Pharmaceutical Compounds and a Preparation Thereof” (priority 2005, published 2008).
Read-outs that look alike come from different tables or passages of the source. Blank lines part the entries; values can stand above or below the molecule they belong to.

How the values were obtained:
[1] = cited from earlier work
[2] = Method: 1 gram mole equivalent of (S)-2,6-diaminohexanoic acid is added to the above ethyl acetate solution and stirred at ambient room temperature.
[3] = test system: CYP3A4; conditions: cited from earlier work
[4] = oral; cited from earlier work

Structure (SMILES): CC[C@H](CC[C@@H](C)[C@H]1CC[C@H]2[C@@H]3CC=C4C[C@@H](O)CC[C@]4(C)[C@H]3CC[C@]12C)C(C)C [beta sitosterol]
- beta sitosterol soluble in triolein oil ([1]; linked as an ester to decanoic acid): 1.1%
- beta sitosterol soluble in triolein oil ([1]; linked as an ester to lauric acid): 0.6%
- beta sitosterol soluble in triolein oil ([1]; linked as an ester to palmitic acid): 0.1%

- solubility in water (in words) [2]: water insoluble
Structure (SMILES): CC(C)c1nc(N(C)S(C)(=O)=O)nc(-c2ccc(F)cc2)c1/C=C/[C@@H](O)C[C@@H](O)CC(=O)O [Rosuvastatin acid]

Structure (SMILES): CC(C)c1c(C(=O)Nc2ccccc2)c(-c2ccccc2)c(-c2ccc(F)cc2)n1CC[C@@H]1C[C@@H](O)CC(=O)O1 [atorvastatin lactone]
- affinity to CYP3A4 compared with the acid [3]: significantly higher affinity
- CYP-dependent metabolism to ortho-hydroxy metabolite, compared with atorvastatin acid ([3]; human liver microsomes): 20 fold
- CYP-dependent metabolism to para-hydroxy metabolite, compared with atorvastatin acid ([3]; human liver microsomes): 83 fold

Structure (SMILES): CC(C)c1c(C(=O)Nc2ccccc2)c(-c2ccccc2)c(-c2ccc(F)cc2)n1CC[C@@H](O)C[C@@H](O)CC(=O)O (relative stereo) [atorvastatin, [R—(R*,R*)]-2-(4-fluorophenyl)-β,δ-dihydroxy-5-((1-methylethyl)-3-phenyl-4-[(phenylamino)-carbonyl]-1H-pyrrole-1-heptanoic acid]
- orally administered drug absorbed from the intestine [4]: about 30%
